Data as given in patent US20250177329A1, “GPR120 AGONISTS FOR THE TREATMENT OF INFLAMMATORY BOWEL DISEASE” (Dompe' Farmaceutici SPA, priority 2022, published 2025).

Tests used:
[1] = Plasma pharmacokinetics after single oral administration to mice; format: in vivo; conditions: male, CD1, mouse, single oral dose (Dose_PO: 10.0-90.0 mg/kg)
From the text: The purpose of this study was to evaluate plasma and tissue exposure of the following compounds after a single oral administration to mice: • 7-(3-(N-(4-fluoro-2,6-dimethylphenyl)sulfamoyl)phenyl)heptanoic acid (indicated below as DFL23806), • 7-(3-(N-(4-chloro-2,6-dimethylphenyl)sulfamoyl)phenyl)heptanoic acid (indicated below as DFL23914) • 7-(3-(N-(2,6-dimethyl-4-(trifluoromethyl)phenyl)sulfamoyl)phenyl)heptanoic acid (indicated below as DFL23922) • 7-(3-(N-(6-fluoro-4-methyl-[1,1′-biphenyl]-3-yl)sulfamoyl)phenyl)heptanoic acid (indicated below as DFL23916) • 7-(3-(N-(5-fluoro-3-methyl-[1,1′-biphenyl]-2-yl)sulfamoyl)phenyl)heptanoic acid (indicated below as DFL23917) • 7-(3-{[4-fluoro-2-methyl-5-(thiophen-2-yl)phenyl]sulfamoyl}phenyl)heptanoic acid (indicated below as DFL24102) […]
A retro-orbital, composite blood sampling at pre-dose or after dosing at 30 min, 1, 2, 6, 8 and 24 hours (three mice/time point) was carried out for the plasma pharmacokinetic assessment. Blood samples were collected in heparinized collection tubes. Samples were taken immediately onto ice and kept cool until centrifugation (10000 g for 3 minutes at about +4° C.). About 50 μL of plasma were stored in a freezer at −80° C. pending analysis.
After samples collection, bioanalysis for concentrations of the test compounds were done using HPLC-MS/MS methods and pharmacokinetic analysis of the compounds in plasma and tissues was performed according to standard non-compartmental approach using Watson system (v 7.6, Thermo Fisher Scientific Waltham, MA, USA) on mean concentration data.

GPR40 = biological target: T1, GPR40 (Mus musculus, UniProt Q76JU9); assay: Co-immunoprecipitation of β-arrestin 2 with GPR40 in colon lysates of DSS mice; format: in vivo; conditions: pooled colon lysates, day 39; compared to DSS or DSS+vehicle
T1 construct: Colon lysates (˜900 μg proteins) from 6 mice of each experimental group were pooled; from tissue; host or cells: mouse colon (DSS colitis model)
T1 sequence (Q76JU9 whole entry): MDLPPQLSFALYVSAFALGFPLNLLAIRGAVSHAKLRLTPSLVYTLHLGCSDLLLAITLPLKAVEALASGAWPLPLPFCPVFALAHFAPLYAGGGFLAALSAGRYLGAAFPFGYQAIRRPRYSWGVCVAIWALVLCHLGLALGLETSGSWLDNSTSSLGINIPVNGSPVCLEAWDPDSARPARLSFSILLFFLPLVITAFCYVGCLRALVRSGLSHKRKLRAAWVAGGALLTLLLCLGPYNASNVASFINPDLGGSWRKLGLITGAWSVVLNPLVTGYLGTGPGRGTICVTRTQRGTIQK
Method: The efficiency of DFL in activating the GPR120 and/or GPR40 receptors was tested.
Agonist-induced GPR120 can engage multiple signalling pathways to regulate distinct physiological outcomes. After ligand binding, B-arrestins, such as B-arrestin 2 can associate with the cytoplasmic domains of GPR120 and couple the receptor to specific downstream signaling pathways (FIG. 9). For this reason, we verified the agonist efficiency in activating GPR120 and GPR40 by immunoprecipitation. Colon lysates (˜900 μg proteins) from 6 mice of each experimental group were pooled, precleared with protein A/G plus-agarose (Santa Cruz) and then incubated with the antibody used for immunoprecipitation (anti-GPR120 or anti-GPR40, Abcam) at 4° C. for 16 h, followed by incubation with protein A/G plus-agarose for 5 h. The agarose beads were then collected by centrifugation, washed four times with lysis buffer, and heated to 95° C. for 5 min after adding Laemmli buffer. The resulting immunoprecipitates were separated by SDS-PAGE and probed with the anti-β-arrestin 2 antibody (Santa Cruz).
Upon western blotting, a densitometric analysis of the blots was performed using Image J. FIGS. 10 and 11 show the ratio between co-immunoprecipitated β-arrestin 2 and GPR120 (FIG. 10) or GPR40 levels (FIG. 11) and the results of the blotting.

DSS-induced colitis = assay: Mouse model of Dextran Sodium Sulfate-induced colitis; format: in vivo, female C57/B16 mice; conditions: day 39
From the text: A mouse model of colitis induced by administration of Dextran Sodium Sulfate (DSS) (Wirtz S. et al. Nature Protocols; Volume: 2, Issue: 3 Pages: 541-546; 2007) was used to study the therapeutic effect of oral administration of DFL23806 on colitis.
In details, 8- to 12-week-old female C57/B16 mice were subjected to 3 oral cycles of 2.5% Dextran Sodium Sulfate (DSS) in drinking water (molecular mass, 40 kDa; MP Biomedicals), each cycle characterized by 7 days of DSS administration followed by 7 days of filter-purified water.
From day 3 of DSS administration, the mice were divided in 4 experimental groups, each receiving the treatment specified below: • Group 1: DSS (n=8)
No treatment, used as negative control. • Group 2: DSS+Vehicle (n=8)
Treated with 20% v/v Dimethyl Sulfoxide (DMSO) and 80% v/v Phosphate Buffered Saline (PBS), 0.1 M, pH 8 (Vehicle), used as a negative control. • Group 3: DSS+DFL 90 mg/kg (n=8)
Treated with DFL23806 dissolved in Vehicle, at the dosage of 90 mg/kg once a day. • Group 4: DSS+5-ASA 60 mg/kg (n=8)
Treated with 5-aminosalicylic acid (5-ASA) in Vehicle, at the dosage of 60 mg/Kg once a day, used as reference positive control.
Vehicle, DFL23806 and 5-ASA were administered daily, in the morning, by oral gavage, using plastic sterile feeding tubes 20 ga×30 mm. All mice were sacrificed on day 39.
A DAI score was established based on a scale that considers different parameters characterizing experimental colitis induction and progression (R S Walmsley et al. Gut 1998; 43:29-32).
Body weight, presence of gross blood in the feces, and stool consistency were recorded every 2 days. In details, the DAI was determined at each time point by scoring changes in weight loss (0=none, 1=1%-5%, 2=5%-10%, 3=10%-20%, 4=>20%); stool consistency (0=normal, 2=loose, 4=diarrhea); and rectal bleeding (0=normal, 2=occult bleeding, 4=gross bleeding).
Mice were sacrificed at day 39, colon were collected and colon lengths measured for each mouse, as additional parameter of intestinal inflammation.
The day of sacrifice (day 39), mice were anesthetized with 2% isoflurane and subjected to endoscopy, to confirm the inflammatory grade. The experimental endoscopy setup, denoted “Coloview system”, consisted of a miniature endoscope (scope 1.9 mm outer diameter), a xenon light source, a triple chip camera, and an air pump (all from Karl Storz, Tuttlingen, Germany) to achieve regulated inflation of the mouse colon. The endoscopic procedure was viewed on a colour monitor and a modified murine endoscopic index score of colitis severity was assigned on the basis of colon translucency (0-3 points), granular features of the mucosa (0-3 points), morphology of the vascular pattern (0-4 points), and the presence of fibrin (0-4 points), as previously described by Dr. D'Alessio (D'Alessio, S. et al. J. Clin. Invest. 124, 3863-3878; 2014) leading to a cumulative score between 0 (no signs of inflammation) and […] (endoscopic signs of very severe inflammation).
Histological analysis has been performed by an expert pathologist, in a blinded fashion, to grade the intestinal inflammation. More in details, colons of colitic mice in the various experimental groups have been evaluated for histological analyses using […] paraffin-embedded sections, stained with hematoxylin (Dako) and eosin (Diapath). A blinded pathologist evaluated the degree of inflammatory cell infiltration and mucosal damage, using the RACHMILEWITZ score (Table 1) (Rachmilewitz, D. et al. Gastroenterology 122, 1428-1441; 2002).

[2] = colon, DFL 90 mg/kg, 5-ASA 60 mg/kg, compared with DSS+Vehicle
[3] = DFL23806 90 mg/kg, 5-ASA 60 mg/kg oral once a day, compared to DSS and DSS+Vehicle

SMILES | AUC(0-inf) [1] | AUC(0-t) [1] | Cmax [1] | Tmax [1] | half-life [1] | GPR40 and β-arrestin 2 association (ratio co-immunoprecipitated β-arrestin 2 / GPR40) (GPR40) | histological score (Rachmilewitz) for extent of flogosis (DSS-induced colitis; [2]) | histological score (Rachmilewitz) for extent of ulceration (DSS-induced colitis; [2]) | histological score (Rachmilewitz) for flogosis (DSS-induced colitis; [2]) | histological score (Rachmilewitz) for ulceration (DSS-induced colitis; [2]) | composite endoscopic score (DSS-induced colitis; [3]) | endoscopic score: colon thickness (DSS-induced colitis; [3]) | endoscopic score: mucosal surface granularity (DSS-induced colitis; [3]) | endoscopic score: vascular pattern (DSS-induced colitis; [3]) | endoscopic score: visible fibrin (DSS-induced colitis; [3]) | colon length (DSS-induced colitis; DFL23806 90 mg/kg, 5-ASA 60 mg/kg oral once a day, compared to DSS+vehicle)
Cc1cc(C(F)(F)F)cc(C)c1NS(=O)(=O)c1cccc(CCCCCCC(=O)O)c1 [DFL23922, 7-(3-(N-(2,6-dimethyl-4-(trifluoromethyl)phenyl)sulfamoyl)phenyl)heptanoic acid] | 217 ng·h/mL | 201 ng·h/mL | 123 ng/mL | 1.4 h | 1.5 h | – | – | – | – | – | – | – | – | – | – | –
Cc1cc(F)c(-c2ccccc2)cc1NS(=O)(=O)c1cccc(CCCCCCC(=O)O)c1 [DFL23916, 7-(3-(N-(6-fluoro-4-methyl-[1,1′-biphenyl]-3-yl)sulfamoyl)phenyl)heptanoic acid] | 571 ng·h/mL | 480 ng·h/mL | 198 ng/mL | 0.4 h | 2.2 h | – | – | – | – | – | – | – | – | – | – | –
Nc1ccc(O)c(C(=O)O)c1 [5-ASA, 5-aminosalicylic acid, reference compound] | – | – | – | – | – | no increase | significantly reduced the histological score | significantly reduced the histological score | significantly reduced the histological score | significantly reduced the histological score | significantly inhibit chronic experimental colitis | significantly inhibit chronic experimental colitis | significantly inhibit chronic experimental colitis | significantly inhibit chronic experimental colitis | significantly inhibit chronic experimental colitis | significant inhibitory effect
Cc1cc(F)c(-c2cccs2)cc1NS(=O)(=O)c1cccc(CCCCCCC(=O)O)c1 [DFL24102, 7-(3-{[4-fluoro-2-methyl-5-(thiophen-2-yl)phenyl]sulfamoyl}phenyl)heptanoic acid] | 302 ng·h/mL | 278 ng·h/mL | 113 ng/mL | 1 h | 1.9 h | – | – | – | – | – | – | – | – | – | – | –
Cc1cc(Cl)cc(C)c1NS(=O)(=O)c1cccc(CCCCCCC(=O)O)c1 [DFL23914, 7-(3-(N-(4-chloro-2,6-dimethylphenyl)sulfamoyl)phenyl)heptanoic acid] | 230 ng·h/mL | 189 ng·h/mL | 45 ng/mL | 2 h | 1.2 h | – | – | – | – | – | – | – | – | – | – | –
Cc1cc(F)cc(-c2ccccc2)c1NS(=O)(=O)c1cccc(CCCCCCC(=O)O)c1 [DFL23917, 7-(3-(N-(5-fluoro-3-methyl-[1,1′-biphenyl]-2-yl)sulfamoyl)phenyl)heptanoic acid] | 402 ng·h/mL | 378 ng·h/mL | 135 ng/mL | 0.5 h | 1.3 h | – | – | – | – | – | – | – | – | – | – | –
